For series [1], the target named is T1, Taste receptor type 2 member 46 (Homo sapiens) (UniProt P59540).
T1 sequence (whole entry): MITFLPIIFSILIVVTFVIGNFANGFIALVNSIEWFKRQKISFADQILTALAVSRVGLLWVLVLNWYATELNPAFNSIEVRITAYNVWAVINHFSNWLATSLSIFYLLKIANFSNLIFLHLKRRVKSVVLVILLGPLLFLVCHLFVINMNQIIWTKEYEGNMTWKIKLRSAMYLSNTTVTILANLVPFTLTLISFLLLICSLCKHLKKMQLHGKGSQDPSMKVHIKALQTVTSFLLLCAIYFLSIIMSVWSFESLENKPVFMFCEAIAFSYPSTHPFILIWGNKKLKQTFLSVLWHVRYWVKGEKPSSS
Kind of series: Agonist activity at human TAS2R46 expressed in PMA-induced human BEAS2B cells assessed as antiinflammatory activity by measuring increase in IL-4 gene expression at 1 uM incubated for 18 hrs in presence of 1 uM TAS2R46 antagonist 3HDC by qRT-PCR analysis. Format: cell-based.

Series [2] has as its target T1, Taste receptor type 2 member 46 (Homo sapiens). Description: Agonist activity at human TAS2R46 expressed in human BEAS2B cells assessed as increase in cytosolic calcium level at 1 mM by Fluo-2-AM dye based fluorescence assay. Format: functional, cell-based.
Series [3] has the same target. Description: Agonist activity at human TAS2R46 expressed in human BEAS2B cells assessed as increase in cytosolic calcium level at 1 mM in presence of […] antagonist 3HDC by Fluo-2-AM dye based fluorescence assay. Format: functional, cell-based.
The target is the same in series [4]. Description: Agonist activity at human TAS2R46 expressed in PMA-induced human BEAS2B cells assessed as antiinflammatory activity by measuring increase in IL-10 gene expression at 1 uM incubated for 18 hrs in presence of 1 uM TAS2R46 antagonist 3HDC by qRT-PCR analysis. Format: cell-based. For orientation: Quantitative PCR measures a nucleic acid by following its amplification.

Series [5] shares this target. Kind of series: Agonist activity at human TAS2R46 expressed in human BEAS2B cells assessed as antiinflammatory activity by measuring reduction in PMA-induced iNOS protein level at 1 uM incubated for 18 hrs by TRITC-phalloidin/DAPI staining based analysis. Format: cell-based.
Series [6] shares this target. Description: Agonist activity at human TAS2R46 expressed in human BEAS2B cells assessed as antiinflammatory activity by measuring reduction in PMA-induced superoxide anion generation at 1 uM preincubated for 1 hr followed by PMA addition and measured after 30 mins by cytochrome C reduction assay. Format: cell-based.
Series [7] has the same target. Description: Agonist activity at human TAS2R46 expressed in PMA-induced human BEAS2B cells assessed as antiinflammatory activity by measuring increase in IL-10 gene expression at 1 uM incubated for 18 hrs by qRT-PCR analysis. Format: cell-based.
Series [8] shares this target. Description: Agonist activity at human TAS2R46 expressed in human BEAS2B cells assessed as antioxidant activity by measuring reduction in PMA-induced superoxide anion generation at 1 uM preincubated for 1 hr followed by PMA addition and measured after 30 mins in presence of 1 uM TAS2R46 antagonist 3HDC by cytochrome C reduction assay. Format: cell-based.
Series [9] has the same target. Kind of series: Agonist activity at human TAS2R46 expressed in PMA-induced human BEAS2B cells assessed as antiinflammatory activity by measuring increase in IL-4 gene expression at 1 uM incubated for 18 hrs by qRT-PCR analysis. Format: cell-based.
Series [10] shares this target. Description: Agonist activity at human TAS2R46 expressed in human BEAS2B cells assessed as antiinflammatory activity by measuring reduction in PMA-induced iNOS mRNA level at 1 uM incubated for 18 hrs by qRT-PCR analysis. Format: cell-based.
Series [11] shares this target. Kind of series: Agonist activity at human TAS2R46 expressed in human BEAS2B cells assessed as antiinflammatory activity by measuring reduction in PMA-induced IL-1beta gene expression at 1 uM incubated for 18 hrs in presence of 1 uM TAS2R46 antagonist 3HDC by qRT-PCR analysis. Format: cell-based.
The target is the same in series [12]. Kind of series: Agonist activity at human TAS2R46 expressed in human BEAS2B cells assessed as antiinflammatory activity by measuring reduction in PMA-induced IL-1beta gene expression at 1 uM incubated for 18 hrs by qRT-PCR analysis. Format: cell-based.
For series [13] the target is unchanged. Description: Agonist activity at human TAS2R46 expressed in human BEAS2B cells assessed as antiinflammatory activity by measuring reduction in PMA-induced MUC5AC expression at 1 uM incubated for 18 hrs by TRITC-phalloidin/DAPI staining based analysis. Format: cell-based.
Series [14] deals with BEAS-2B. Kind of series: Effect on basal superoxide anion production in human BEAS2B cells expressing human TAS2R46 at 1 uM after 1 hr by cytochrome C reduction assay. Format: ADME, cell-based.
The target of series [15] is T1, Taste receptor type 2 member 46 (Homo sapiens). Description: Agonist activity at human TAS2R46 expressed in human BEAS2B cells assessed as increase in cytosolic calcium level at 1 mM in presence of 100 uM TAS2R46 antagonist 3HDC by Fluo-2-AM dye based fluorescence assay. Format: functional, cell-based.
Series [16] shares this target. Description: Agonist activity at human TAS2R46 expressed in PMA-induced human BEAS2B cells assessed as antiinflammatory activity by measuring increase in IL-10 gene expression at 10 uM incubated for 18 hrs by qRT-PCR analysis. Format: cell-based.
Series [17] shares this target. Kind of series: Agonist activity at human TAS2R46 expressed in human BEAS2B cells assessed as antiinflammatory activity by measuring reduction in PMA-induced IL-1beta gene expression at 10 uM incubated for 18 hrs by qRT-PCR analysis. Format: cell-based.
The target is the same in series [18]. Description: Agonist activity at human TAS2R46 expressed in human BEAS2B cells assessed as antiinflammatory activity by measuring reduction in PMA-induced iNOS protein level at 10 uM incubated for 18 hrs by TRITC-phalloidin/DAPI staining based analysis. Format: cell-based.
Series [19] shares this target. Description: Agonist activity at human TAS2R46 expressed in human BEAS2B cells assessed as antiinflammatory activity by measuring reduction in PMA-induced iNOS mRNA level at 10 uM incubated for 18 hrs by qRT-PCR analysis. Format: cell-based.
For series [20] the target is unchanged. Kind of series: Agonist activity at human TAS2R46 expressed in human BEAS2B cells assessed as antiinflammatory activity by measuring reduction in PMA-induced MUC5AC gene expression at 1 to 10 uM incubated for 18 hrs by qRT-PCR analysis. Format: cell-based.
Series [21] shares this target. Kind of series: Agonist activity at human TAS2R46 expressed in human BEAS2B cells assessed as antiinflammatory activity by measuring reduction in PMA-induced IL-1beta gene expression at 10 uM incubated for 18 hrs in presence of 1 uM TAS2R46 antagonist 3HDC by qRT-PCR analysis. Format: cell-based.
Series [22] relates to BEAS-2B. Description: Effect on basal superoxide anion production in human BEAS2B cells expressing human TAS2R46 at 10 uM after 1 hr by cytochrome C reduction assay. Format: ADME, cell-based.
Series [23] addresses T1, Taste receptor type 2 member 46 (Homo sapiens). Kind of series: Agonist activity at human TAS2R46 expressed in human BEAS2B cells assessed as effect on cytosolic calcium level at microM concentration by Fluo-2-AM dye based fluorescence assay. Format: functional, cell-based.
Series [24] has the same target. Kind of series: Agonist activity at human TAS2R46 expressed in human BEAS2B cells assessed as antioxidant activity by measuring reduction in PMA-induced superoxide anion generation at 10 uM preincubated for 1 hr followed by PMA addition and measured after 30 mins in presence of 1 uM TAS2R46 antagonist 3HDC by cytochrome C reduction assay. Format: cell-based.
Series [25] shares this target. Description: Agonist activity at human TAS2R46 expressed in PMA-induced human BEAS2B cells assessed as antiinflammatory activity by measuring increase in IL-4 gene expression at 10 uM incubated for 18 hrs by qRT-PCR analysis. Format: cell-based.
The target is the same in series [26]. Description: Agonist activity at human TAS2R46 expressed in human BEAS2B cells assessed as antioxidant activity by measuring reduction in PMA-induced superoxide anion generation at 10 uM preincubated for 1 hr followed by PMA addition and measured after 30 mins by cytochrome C reduction assay. Format: cell-based.

Calls of active or inactive are those of the source. The calls are words filed in the database; no cut-off is given here.

With `COC(=O)[C@@H](C)C1=CC2=C(C)[C@H]3[C@H]([C@@H]4CC5(C)O[C@@]6(C)CC[C@H]7[C@H](C)C(=O)O[C@@H]7C35[C@@H]46)[C@H]2[C@@](C)(O)CC1`, the result in series [1], in series [3], in series [4] and in series [8] was inactive. Further, the outcome in series [2], in series [5], in series [6], in series [7], in [9] and in series [10] was Active. Besides, the result in [11], in series [12] and in series [13] was Active. In addition, the Activity entry in the series on BEAS-2B [14] is “Non-Toxic”.

With `CC1=C2C=C([C@H](C)C(=O)OCCc3ccccc3)CC[C@](C)(O)[C@@H]2[C@H]2[C@@H]3CC4(C)O[C@@]5(C)CC[C@H]6[C@H](C)C(=O)O[C@@H]6C4([C@@H]35)[C@@H]12`, the result in series [2], in series [5], in [6], in [10], in series [11] and in [12] was Active. For the same compound, the outcome in [13] was Active. Further, the result in [7], in series [8], in series [9] and in series [15] was inactive. Besides, the Activity result in the series on BEAS-2B [14] is given as “Non-Toxic”.

Consider `CC1=C[C@@H]2[C@H]3[C@H](C(C)=C4[C@H]5OC(=O)[C@@H](C)[C@@H]5CC[C@](C)(O)[C@@H]43)[C@@]13[C@@H]2[C@@](C)(O)CC[C@H]1[C@H](C)C(=O)O[C@@H]13`, for which the result in series [16], in [21], in series [23], in series [7], in series [8] and in series [9] was inactive. Besides, the result in [24], in series [25], in series [15] and in series [11] was inactive. Further, the result in series [2], in [17], in series [18], in series [19], in series [20] and in series [6] was Active. The outcome in series [26], in series [12] and in series [13] was Active. Besides, the Activity result in the series on BEAS-2B [22] and in the series with BEAS-2B [14] was “Non-Toxic” each time.

Regarding `CC1=C2C=C(C(C)NC(=O)N=[N+]=[N-])CC[C@](C)(O)[C@@H]2[C@H]2[C@@H]3CC4(C)O[C@@]5(C)CC[C@H]6[C@H](C)C(=O)O[C@@H]6C4([C@@H]35)[C@@H]12` (stereo not given in full), the result in series [2], in series [3], in [5], in [6], in series [15] and in series [11] was Active. Further, the outcome in [12] and in series [13] was Active. Also, the result in [7], in [8], in series [9] and in series [10] was inactive. For the same compound, the Activity entry with BEAS-2B [14] is “Non-Toxic”.

(Values after ChEMBL document CHEMBL4622880, “Anti-inflammatory Activity of Absinthin and Derivatives in Human Bronchoepithelial Cells” (J Nat Prod, 2020).)
